Patent US6391887B1, “3,4-Dihydroquinoline derivatives as nitrogen monoxide synthase (NOS) inhibitors” (Schering Aktiengesellschaft, priority 1998, dated 2002)

Biological target: bNOS (UniProt P29475)
Assay: bNOS inhibition (method of Bredt and Snyder)
Assay type: biochemical
Excerpt: The NOS-inhibitory action of the compounds of Formula (I) and their physiologically compatible salts can be determined according to the methods by Bredt and Snyder in Proc. Natl. Acad. Sci. USA (1989) 86, 9030-9033.

Row | IC50 | SMILES
1 | 1400 nM | NC1=Nc2cc(N3CCOCC3)ccc2C2CCCC12 (centres unmarked) [Example 21, 4-Amino-7-(4-morpholinyl)-2,3,3a,9b-tetrahydro-1H-cyclopenta[c]quinoline]
2 | 1100 nM | COC(=O)CCc1ccc2c(c1)N=C(N)C1CCCC21 (centres unmarked) [Example 22, 4-Amino-7-(methoxycarbonylethyl)-2,3,3a,9b-tetrahydro-1H-cyclopenta[c]quinoline]
